Species: Rattus norvegicus
Test: Open TG-GATES - Regimen: Single
Assay type: toxicity, organism-based, Sprague-Dawley
Design: regimen Single, gender Male, age 6 weeks
Details: in vivo, po, route gavage; for TC / TG / TP / gamma-GTP / ALP / ALT / AST / BUN / CRE / Ca / Cl / DBIL / GLC / K / LDH / Na / RALB / TBIL / IP / PL: tissue Plasma; for APTT / Bas / Eos / Fbg / Hb / Ht / Lym / MCH / MCHC / Mono / Neu / PT / Plat / RBC / Ret / WBC / MCV: tissue Blood; for KIDNEY_L / KIDNEY_R / KIDNEY_TOTAL: tissue Kidney; for LIVER: tissue Liver
[1] = 1000 mg/kg, 24 h, dose level Middle
[2] = 2000 mg/kg, 3 h, dose level High
[3] = 2000 mg/kg, 6 h, dose level High
[4] = 2000 mg/kg, 9 h, dose level High
[5] = 2000 mg/kg, 24 h, dose level High

CCOc1ccc(NC(C)=O)cc1 [PHENACETIN] gave a TC [1] of 97.2 mg/dL, a TG [1] of 92.4 mg/dL and a TP [1] of 5.6 g/dL. The gamma-GTP [1] was 1.2 IU/L, the TERMINAL_BW [2] was 214.4 g and the APTT [2] was 17.5 s. The Bas [2] was 0%, the Eos [2] was 1% and the Fbg [2] was 307.2 mg/dL. The Hb [2] was 13.9 g/dL, the Ht [2] was 41% and the Lym [2] was 76.8%. It also gave an MCH [2] of 21.2 pg, an MCHC [2] of 33.8% and a Mono [2] of 2.8%. For the same molecule, the Neu [2] was 19%, the PT [2] was 14.2 s and the Plat [2] was 115.4 x10_4/uL. It also gave an RBC [2] of 652.4 x10_4/ul, a Ret [2] of 9% and a WBC [2] of 60.2 x10_2/uL. The KIDNEY_L [2] was 0.9 g, the KIDNEY_R [2] was 1 g and the KIDNEY_TOTAL [2] was 1.9 g. The LIVER [2] was 9.2 g, the ALP [2] was 1540.4 IU/L and the ALT [2] was 39.8 IU/L. For the same molecule, the AST [2] was 70.4 IU/L, the BUN [2] was 10.2 mg/dL and the CRE [2] was 0.1 mg/dL. The Ca [2] was 11 mg/dL, the Cl [2] was 99.4 meq/L and the DBIL [2] was 0 mg/dL. The GLC [2] was 240.4 mg/dL, the K [2] was 3.7 meq/L and the LDH [2] was 78 IU/L. It also gave a Na [2] of 139 meq/L, an RALB [2] of 2.6 g/dL and a TBIL [2] of 0.034 mg/dL. For the same molecule, the TG [2] was 47.4 mg/dL, the TP [2] was 5.5 g/dL and the gamma-GTP [2] was 1 IU/L. It also gave a TERMINAL_BW [3] of 209.5 g, a Bas [3] of 0% and an Eos [3] of 0.4%. It also gave a Fbg [3] of 308.8 mg/dL, a Ht [3] of 40.1% and a Lym [3] of 74.2%. For the same molecule, the MCH [3] was 21.2 pg, the MCV [3] was 61.4 fL and the Mono [3] was 2.2%. The PT [3] was 14.2 s, the Plat [3] was 115.7 x10_4/uL and the RBC [3] was 653.8 x10_4/ul. The Ret [3] was 8.4%, the WBC [3] was 47.7 x10_2/uL and the KIDNEY_L [3] was 0.9 g. It also gave a KIDNEY_R [3] of 0.9 g, a KIDNEY_TOTAL [3] of 1.8 g and an LIVER [3] of 9.1 g. The ALP [3] was 1249 IU/L, the ALT [3] was 45.6 IU/L and the AST [3] was 84 IU/L. For the same molecule, the BUN [3] was 10.2 mg/dL, the CRE [3] was 0.1 mg/dL and the Ca [3] was 11.1 mg/dL. The Cl [3] was 103 meq/L, the DBIL [3] was 0 mg/dL and the GLC [3] was 192.2 mg/dL. For the same molecule, the IP [3] was 9.9 mg/dL, the K [3] was 3.8 meq/L and the LDH [3] was 93.2 IU/L. It also gave a Na [3] of 139.2 meq/L, a PL [3] of 136.4 mg/dL and an RALB [3] of 2.7 g/dL. For the same molecule, the TBIL [3] was 0.032 mg/dL, the TC [3] was 83.8 mg/dL and the TP [3] was 5.6 g/dL. For the same molecule, the gamma-GTP [3] was 1.2 IU/L, the TERMINAL_BW [4] was 210.8 g and the APTT [4] was 16.8 s. The Bas [4] was 0%, the Eos [4] was 0.4% and the Fbg [4] was 288.4 mg/dL. The Hb [4] was 13.3 g/dL, the Ht [4] was 38.1% and the Lym [4] was 73.6%. For the same molecule, the MCH [4] was 20.9 pg, the MCHC [4] was 35% and the MCV [4] was 59.8 fL. It also gave a Mono [4] of 3.2%, a Neu [4] of 22% and a PT [4] of 14.3 s. It also gave a Plat [4] of 123.9 x10_4/uL, an RBC [4] of 638.6 x10_4/ul and a Ret [4] of 8.7%. It also gave a WBC [4] of 54.6 x10_2/uL, a KIDNEY_L [4] of 0.9 g and a KIDNEY_R [4] of 0.9 g. For the same molecule, the KIDNEY_TOTAL [4] was 1.8 g, the LIVER [4] was 9 g and the ALP [4] was 1259 IU/L. The ALT [4] was 40.6 IU/L, the AST [4] was 70.8 IU/L and the BUN [4] was 10.2 mg/dL. It also gave a CRE [4] of 0.1 mg/dL, a Ca [4] of 10.9 mg/dL and a Cl [4] of 101.2 meq/L. The DBIL [4] was 0 mg/dL, the GLC [4] was 205.6 mg/dL and the IP [4] was 9.1 mg/dL. It also gave a K [4] of 3.6 meq/L, an LDH [4] of 66.8 IU/L and a Na [4] of 137.6 meq/L. For the same molecule, the PL [4] was 163 mg/dL, the RALB [4] was 2.5 g/dL and the TBIL [4] was 0.034 mg/dL. The TC [4] was 99.6 mg/dL, the TG [4] was 18 mg/dL and the TP [4] was 5.5 g/dL. For the same molecule, the gamma-GTP [4] was 1.6 IU/L, the TERMINAL_BW [5] was 193.2 g and the APTT [5] was 18.2 s. For the same molecule, the Bas [5] was 0.6%, the Eos [5] was 0.6% and the Fbg [5] was 273.4 mg/dL. The Hb [5] was 14.2 g/dL, the Ht [5] was 41.5% and the Lym [5] was 75%. It also gave an MCH [5] of 20.8 pg, an MCHC [5] of 34.2% and an MCV [5] of 60.7 fL. The Mono [5] was 2.6%, the Neu [5] was 20.8% and the PT [5] was 14.5 s. For the same molecule, the Plat [5] was 138.6 x10_4/uL, the RBC [5] was 684.2 x10_4/ul and the Ret [5] was 7.5%. The WBC [5] was 70 x10_2/uL, the KIDNEY_L [5] was 0.9 g and the KIDNEY_R [5] was 1 g. It also gave a KIDNEY_TOTAL [5] of 1.9 g, an LIVER [5] of 7.5 g and an ALP [5] of 1341.4 IU/L. For the same molecule, the ALT [5] was 44.8 IU/L, the AST [5] was 115 IU/L and the BUN [5] was 12 mg/dL. For the same molecule, the CRE [5] was 0.2 mg/dL, the Ca [5] was 10.7 mg/dL and the Cl [5] was 104.2 meq/L. It also gave a DBIL [5] of 0.024 mg/dL, a GLC [5] of 171.2 mg/dL and an IP [5] of 9.6 mg/dL. For the same molecule, the K [5] was 4.3 meq/L, the LDH [5] was 206 IU/L and the Na [5] was 140.8 meq/L. The PL [5] was 150.6 mg/dL, the RALB [5] was 2.7 g/dL and the TBIL [5] was 0.046 mg/dL. It also gave a TC [5] of 90.4 mg/dL, a TG [5] of 52.6 mg/dL and a TP [5] of 5.7 g/dL. It also gave a gamma-GTP [5] of 1 IU/L.

Source: ChEMBL document CHEMBL3885861, “Open TG-GATES”
